Our source for the EC50 values is ChEMBL document CHEMBL1151652, “Constituents of Erysimum inconspicuum. Two sulfur-containing lactone compounds” (1985).

≈ marks a conversion by molar mass, not a printed value.

In the experiment the test system is KB. The experiment is described as follows: Cytotoxicity against human KB cells. The experiment is classed as functional. As to conditions: read-out: ED50 (the source's name).
Regarding `C[C@]12CC[C@H]3[C@@H](CC[C@]4(O)C[C@@H](O)CC[C@]34C=O)[C@@]1(O)CC[C@@H]2C1=CC(=O)OC1` [STROPHANTHIDIN], the EC50 was found to be 0.44 µg/mL (≈ 1.09 µM).

Consider `CS(=O)(=O)CC[C@H]1CCC(=O)O1` [ERYSULFONE], for which the EC50 was 21 µg/mL (≈ 109 µM).

For `C[S+]([O-])CC[C@H]1CCC(=O)O1` (stereo partly drawn) [ERYSULFOXIDE], the EC50 was 2.3 µg/mL (≈ 13.1 µM).
